From patent US5418135A, “Method of inhibiting binding of PDGF to a PDGF receptor by biosynthetic PDGF antagonists” (Creative BioMolecules, Inc., priority 1993, dated 1995)

Tested on: PDGF receptor on human foreskin fibroblasts / NIH/3T3 cells
Experiment: Inhibition assay: 3H-thymidine incorporation in cells stimulated with PDGF dimer
Assay type: cell-based
Experimental: One method includes the determination of ^3 H-thymidine incorporation in a cell which normally is induced to proliferate in the presence of PDGF, but which simultaneously is exposed to the prospective antagonist and to biologically active PDGF.
Human foreskin fibroblasts are grown from explants of newborn foreskin. NIH/3T3 cells were obtained from S. Aaronson (NCI). Cells are cultured in Dulbecco's modified Eagle's medium (DMEM) supplemented with 10% fetal bovine serum at 37° C. in an atmosphere of 10% CO2 and 90% air.
Cells are grown in 48-well plates to confluence and used for assay 3-4 days later. Different monomeric forms or fragments of PDGF monomers are added to the media, and after 18 hours 10 .xi.g PDGF AA dimer, AB dimer, or BB dimer and 2 .xi.Ci/ml ^3 H-thymidine are added. The cells are incubated an additional 2 hours and washed at 4° C. three times with phosphate-buffered saline (PBS) and five times with 5% trichloroacetic acid (TCA). TCA-insoluble materials are solubilized in 0.1N NaOH/0.1% SDS. The amount of incorporated ^3 H-thymidine is determined with a Beckman liquid scintillation counter.

Substance: A: Intact recombinant PDGF A chain monomer from E. coli, Cys residues pyridylethylated to prevent dimerization
- inhibition of the proliferative effect of BB dimer (in words) (PDGF BB dimer as stimulus): inhibit the proliferative effect of BB dimer
- IC50 (inhibition of PDGF dimer-induced 3H-thymidine incorporation, antagonist added 18 hours before PDGF dimer and 3H-thymidine, read-out: HALF-MAX INHIBITION): 100 nM
